# Data published in ChEMBL document CHEMBL1201862, “PubChem BioAssay data set” (2004).
#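 Tested at 5 concentrations; 48 h exposure; 96-well plates; endpoints linearly interpolated, else capped at highest concentration. GI50 = concentration required for 50% inhibition of growth.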 Activity calls are given as the source filed them. Cut-off read from the data, not from the text of the source: active = GI50 up to about 1.1 µM and inactive = higher.
# Assays:
# Assay in all cases: DTP human tumour cell line panel, 48 h
# [1] = system: NCI/ADR-RES
# [2] = system: HL-60
# [3] = system: SK-MEL-5
# [4] = system: EKVX
# [5] = system: RPMI-8226
# [6] = system: RXF 393
# [7] = system: M14
# [8] = system: UACC-62
# [9] = system: OVCAR-5
# [10] = system: UACC-257
# [11] = system: HCC 2998
# [12] = system: PC-3
# [13] = system: SNB-75
# [14] = system: OVCAR-3
# [15] = system: A498
# [16] = system: HCT-116
# [17] = system: SN12C
# [18] = system: KM12
# [19] = system: A549
# [20] = system: CCRF-CEM
SMILES,GI50 [1],GI50 [2],GI50 [3],GI50 [4],GI50 [5],GI50 [6],GI50 [7],GI50 [8],GI50 [9],GI50 [10],GI50 [11],GI50 [12],GI50 [13],GI50 [14],GI50 [15],GI50 [16],GI50 [17],GI50 [18],GI50 [19],GI50 [20]
Cn1c(N)c(/C=C/C(=O)Oc2ccccc2)c(=O)n(C)c1=O,75.3 µM (inactive),> 100 µM (inactive),> 100 µM (inactive),> 100 µM (inactive),> 100 µM (inactive),44.2 µM (inactive),> 100 µM (inactive),> 100 µM (inactive),> 100 µM (inactive),> 100 µM (inactive),> 100 µM (inactive),> 100 µM (inactive),24.2 µM (inactive),> 100 µM (inactive),> 100 µM (inactive),> 100 µM (inactive),45.6 µM (inactive),> 100 µM (inactive),> 100 µM (inactive),> 100 µM (inactive)
COc1ccc(C(C)NNC(=O)c2cc[n+]([BH2-]C#N)cc2)c(OC)c1 (stereo not given),> 100 µM (inactive),> 100 µM (inactive),> 100 µM (inactive),> 100 µM (inactive),> 100 µM (inactive),> 100 µM (inactive),> 100 µM (inactive),> 100 µM (inactive),> 100 µM (inactive),> 100 µM (inactive),> 100 µM (inactive),> 100 µM (inactive),> 100 µM (inactive),> 100 µM (inactive),> 100 µM (inactive),–,> 100 µM (inactive),> 100 µM (inactive),> 100 µM (inactive),> 100 µM (inactive)
CCOC(=O)c1ccc2nc(-c3ccc(S(=O)(=O)F)cc3)cc(O)c2c1,> 100 µM (inactive),26.7 µM (inactive),50.2 µM (inactive),> 100 µM (inactive),45.9 µM (inactive),31.9 µM (inactive),40.9 µM (inactive),24 µM (inactive),> 100 µM (inactive),51.8 µM (inactive),14.5 µM (inactive),50.6 µM (inactive),25.2 µM (inactive),19.6 µM (inactive),14.8 µM (inactive),23.1 µM (inactive),43.9 µM (inactive),29.8 µM (inactive),53.3 µM (inactive),30.7 µM (inactive)
Cc1cc2nc3ccc(N(C)C)cc3[s+]c2cc1N [TOLONIUM CHLORIDE],2.26 µM (inactive),0.383 µM (active),0.641 µM (active),4.48 µM (inactive),1.48 µM (inactive),7.52 µM (inactive),2.24 µM (inactive),1.89 µM (inactive),9.73 µM (inactive),1.37 µM (inactive),3.7 µM (inactive),1.58 µM (inactive),11 µM (inactive),0.995 µM (active),21.3 µM (inactive),1.75 µM (inactive),3.1 µM (inactive),3.84 µM (inactive),3.22 µM (inactive),1.16 µM (inactive)
CC(C)=CCC[C@@H](C)C1=C(O)C(=O)C(C)=C(Nc2ccccc2Cl)C1=O,1.82 µM (inactive),1.22 µM (inactive),16.8 µM (inactive),19 µM (inactive),25.9 µM (inactive),22.3 µM (inactive),21.4 µM (inactive),12.2 µM (inactive),45.7 µM (inactive),25.9 µM (inactive),20.6 µM (inactive),18.5 µM (inactive),8.75 µM (inactive),10.8 µM (inactive),17.5 µM (inactive),15 µM (inactive),25.1 µM (inactive),10.8 µM (inactive),19 µM (inactive),4.41 µM (inactive)
CN(C)c1ccc(C=c2c3ccccc3n3c2c2c([n+]3C)CCCC2)cc1,3.17 µM (inactive),0.075 µM (active),0.0687 µM (active),0.0227 µM (active),0.0352 µM (active),0.106 µM (active),0.208 µM (active),0.42 µM (active),0.463 µM (active),0.301 µM (active),0.0792 µM (active),0.219 µM (active),0.0796 µM (active),0.152 µM (active),0.247 µM (active),0.0537 µM (active),0.146 µM (active),0.0681 µM (active),0.0728 µM (active),0.0465 µM (active)
Nc1nc(Cl)cc(NCC2(CO)CC(O)C2)n1 (stereo not given),> 100 µM (inactive),> 100 µM (inactive),> 100 µM (inactive),> 100 µM (inactive),> 100 µM (inactive),> 100 µM (inactive),–,> 100 µM (inactive),> 100 µM (inactive),> 100 µM (inactive),> 100 µM (inactive),> 100 µM (inactive),> 100 µM (inactive),> 100 µM (inactive),> 100 µM (inactive),> 100 µM (inactive),> 100 µM (inactive),> 100 µM (inactive),> 100 µM (inactive),> 100 µM (inactive)
CC(=O)OCC(=O)O[C@@H]1[C@H]2[C@@H](OC(=O)c3ccccc3)[C@@H](C)C[C@]2(O)[C@H](OC(C)=O)[C@@]2(C)C(OC(C)=O)[C@]1(OC(C)=O)C[C@H]1C(=O)C(C)(C)C[C@@H]12 (stereo not given in full),> 50 µM (inactive),6.46 µM (inactive),31 µM (inactive),> 42 µM (inactive),13.3 µM (inactive),> 50 µM (inactive),> 50 µM (inactive),> 50 µM (inactive),> 50 µM (inactive),> 50 µM (inactive),25.8 µM (inactive),> 47.9 µM (inactive),> 50 µM (inactive),> 46.6 µM (inactive),29.1 µM (inactive),> 50 µM (inactive),> 50 µM (inactive),> 50 µM (inactive),9.98 µM (inactive),> 11.2 µM (inactive)
O=C1NCC2(CCNCC2)N1c1ccccc1,> 100 µM (inactive),> 100 µM (inactive),> 100 µM (inactive),> 100 µM (inactive),> 100 µM (inactive),> 100 µM (inactive),> 100 µM (inactive),> 100 µM (inactive),> 100 µM (inactive),> 100 µM (inactive),> 100 µM (inactive),> 100 µM (inactive),> 100 µM (inactive),> 100 µM (inactive),> 100 µM (inactive),> 100 µM (inactive),> 100 µM (inactive),> 100 µM (inactive),> 100 µM (inactive),> 100 µM (inactive)
COc1ccc2nc(C)cc(NCCCCCCCCCNc3cc(C)nc4ccc(OC)cc34)c2c1,5.43 µM (inactive),0.824 µM (active),1.71 µM (inactive),3.4 µM (inactive),1.11 µM (active),2.05 µM (inactive),1.95 µM (inactive),2.83 µM (inactive),2.55 µM (inactive),13.7 µM (inactive),1.4 µM (inactive),1.02 µM (active),4.14 µM (inactive),1.24 µM (inactive),13.7 µM (inactive),0.279 µM (active),3.6 µM (inactive),1.26 µM (inactive),1.5 µM (inactive),1.27 µM (inactive)
C[n+]1c(-c2ccc(/C=C/C=N\NC(=O)c3ccc(C(=O)N/N=C\C=C\c4ccc(-c5cn6ccccc6[n+]5C)cc4)cc3)cc2)cn2ccccc21,> 100 µM (inactive),30.2 µM (inactive),> 84.5 µM (inactive),> 100 µM (inactive),38.1 µM (inactive),> 96.2 µM (inactive),> 100 µM (inactive),> 100 µM (inactive),> 100 µM (inactive),> 100 µM (inactive),> 54.7 µM (inactive),> 100 µM (inactive),> 100 µM (inactive),> 64 µM (inactive),> 100 µM (inactive),> 100 µM (inactive),> 100 µM (inactive),39.1 µM (inactive),74.1 µM (inactive),23.9 µM (inactive)
O=C1CNc2cc(N3CCOCC3)ccc2N1,> 100 µM (inactive),> 100 µM (inactive),> 100 µM (inactive),2.91 µM (inactive),> 100 µM (inactive),> 100 µM (inactive),> 100 µM (inactive),64.9 µM (inactive),> 100 µM (inactive),> 100 µM (inactive),> 100 µM (inactive),> 100 µM (inactive),> 100 µM (inactive),> 100 µM (inactive),60.7 µM (inactive),> 100 µM (inactive),–,> 100 µM (inactive),> 100 µM (inactive),> 100 µM (inactive)
COc1ccc(-c2c(N)n(-c3cccc(C(=O)O)c3)c(=O)c3cc([N+](=O)[O-])ccc23)cc1,> 100 µM (inactive),> 100 µM (inactive),> 100 µM (inactive),> 100 µM (inactive),> 100 µM (inactive),> 100 µM (inactive),> 100 µM (inactive),> 100 µM (inactive),> 100 µM (inactive),> 100 µM (inactive),> 100 µM (inactive),> 100 µM (inactive),> 100 µM (inactive),> 100 µM (inactive),> 100 µM (inactive),> 100 µM (inactive),–,> 100 µM (inactive),> 100 µM (inactive),> 100 µM (inactive)
O=C(CN1CCCCC1)c1ccc2c(c1)Sc1ccccc1O2,16.7 µM (inactive),14.2 µM (inactive),–,17.1 µM (inactive),30.8 µM (inactive),4.12 µM (inactive),14.1 µM (inactive),11.5 µM (inactive),15 µM (inactive),18.5 µM (inactive),15.5 µM (inactive),11.6 µM (inactive),11.6 µM (inactive),15.3 µM (inactive),16 µM (inactive),14.4 µM (inactive),19.2 µM (inactive),16 µM (inactive),14.2 µM (inactive),12.6 µM (inactive)
